What was measured:
HepG2 [1] = test: Hypoglycemic activity in Homo sapiens (human) HepG2 cells assessed as glucose consumption at 1 mg/l after 24 hr by glucose enzymatic assay (reference value: 1.972 +/-0.071 mmol/l); assay type: functional
HepG2 [2] = test: Cytotoxicity against Homo sapiens (human) HepG2 cells assessed as absorbance at 490 nm by MTT assay (reference value: 0.574 +/-0.019 no unit); assay type: cell-based; conditions: hepg2, 10 mg/L
HepG2 [3] = test: Hypoglycemic activity in Homo sapiens (human) HepG2 cells assessed as glucose consumption at 10 mg/l after 24 hr by glucose enzymatic assay (reference value: 1.972 +/-0.071 mmol/l); assay type: functional
HepG2 [4] = test: Ratio of glucose consumption to cytotoxic OD490 absorbance for Homo sapiens (human) HepG2 cells (reference value: 3.438 +/-0.139 no unit)

SMILES	Activity (HepG2 [1]) [mmol/L]	OD (HepG2 [2])	Activity (HepG2 [3]) [mmol/L]	Ratio (HepG2 [4])
CC(=O)Oc1cccc2c1C(=O)c1c(OC(C)=O)cc(C(=O)OCc3ccc([N+](=O)[O-])cc3)cc1C2=O	2.198	0.573	2.268	3.958
CN(C)C(=O)c1cc(O)c2c(c1)C(=O)c1cccc(O)c1C2=O	2.444	0.56	2.485	4.449
CC(=O)Oc1cccc2c1C(=O)c1c(OC(C)=O)cc(C(=O)NC3CCCC3)cc1C2=O	2.151	0.577	2.256	3.916
CC(=O)Oc1cccc2c1C(=O)c1c(OC(C)=O)cc(C(=O)N3CCCC3)cc1C2=O	2.476	0.591	2.541	4.304
CN(C)C(=N)NC(=N)N [METFORMIN]		0.574	2.25	3.923
O=C1c2cccc(O)c2C(=O)c2c(O)cc(C(=O)N3CCCC3)cc21	2.379	0.565	2.315	4.116
CC(C)(C)[Si](C)(C)Oc1cccc2c1C(=O)c1c(O[Si](C)(C)C(C)(C)C)cc(C(=O)NC3CCCC3)cc1C2=O	2.369	0.565	2.578	4.563
CC(C)(C)[Si](C)(C)Oc1cccc2c1C(=O)c1c(O[Si](C)(C)C(C)(C)C)cc(C(=O)OCc3ccc([N+](=O)[O-])cc3)cc1C2=O	2.576	0.563	2.529	4.499
